Measurements reported in US11918592B2, “Inhibitors of cyclin dependent kinase 7 (CDK7)” (Syros Pharmaceuticals, Inc., priority 2018, dated 2024).
pIC50: −log10 of the molar value.

Assays:
[1] = test system: HCC70 cells; assay: Inhibition of cell proliferation, CyQUANT Direct, HCC70; type: cell-based, human; details: Homo sapiens; HCC70 triple negative breast cancer cells, 72-hour; read-out: HCC 70 proliferation calculated IC50
Experimental: (§1) HCC70 and MB453 cells are cell lines derived from human triple negative breast cancer. COV318 and COV504 cells are cell lines derived from human ovarian cancer. Representative compounds of the invention were tested at different concentrations (from 4 μM to 126.4 pM; 0.5 log serial dilutions) for their ability to inhibit the proliferation of each of these cell lines. Known CDK inhibitors dinaciclib or N-((1S,3R)-3-((5-chloro-4-(1H-indol-3-yl) pyrimidin-2-yl)amino)cyclohexyl)-5-((E)-4-(dimethylamino)but-2-enamido)picolinamide and triptolide were used as positive controls. Cells were seeded at approximately 2,000 cells/well and grown in ATCC-formulated RPMI-1640 Medium (ATCC 30-2001)+10% FBS. The cells were cultured at 37° C. in a humidified chamber in the presence of 5% CO2. Proliferation assays were conducted over a 72-hour time period. CyQUANT® Direct Cell Proliferation Assay (Life Technologies, Chicago, IL USA) was used to assess the anti-proliferative effects of the compounds following manufacturer's directions and utilizing the reagents supplied with the CyQUANT® Direct Cell kit.

[2] = test system: COV318 cells; assay: Inhibition of cell proliferation, CyQUANT Direct, COV318; type: cell-based; details: Homo sapiens; COV318 ovarian cancer cells, 72-hour; read-out: COV 318 proliferation calculated IC50
Experimental: as §1

[3] = test system: COV504 cells; assay: Inhibition of cell proliferation, CyQUANT Direct, COV504; type: cell-based; details: Homo sapiens; COV504 ovarian cancer cells, 72-hour; read-out: COV 504 proliferation calculated IC50
Experimental: as §1

[4] = test system: MB453 cells; assay: Inhibition of cell proliferation, CyQUANT Direct, MB453; type: cell-based, human; details: Homo sapiens; MB453 triple negative breast cancer cells, 72-hour; read-out: MB 453 proliferation calculated IC50
Experimental: as §1

[5] = target: CDK2/Cyclin E1 complex (Homo sapiens, UniProt P24941); assay: CDK2 kinase inhibition assay (Caliper/LabChip EZ Reader)
Experimental: (§2) Compounds of the invention were assayed for inhibition of CDK7, CDK9, CDK12, and CDK2 activity at Biortus Biosciences (Jiangyin, Jiangsu Province, P.R. of China) using kinase assays for each CDK developed with a Caliper/LabChip EZ Reader (Perkin Elmer, Waltham, MA).
(§3) Furthermore, the CDK9 inhibition assay used CDK9/Cyclin T1 complex (8 nM) and “5-FAM-CDK9tide” peptide substrate (2 μM, synthesized fluorophore-labeled peptide with the following sequence: 5-FAM-GSRTPMY-NH2 (SEQ ID NO:2) where 5-FAM is defined above and NH2 signifies a C-terminal amide) with 10 mM MgCl2 in the buffer composition listed above. The CDK12 inhibition assay used CDK12 (aa686-1082)/Cyclin K complex (50 nM) and “5-FAM-CDK9tide” (2 μM) as defined above, with 2 mM MgCl2 in the buffer composition above. Additionally, the CDK2 inhibition assay used CDK2/Cyclin E1 complex (0.5 nM) and “5-FAM-CDK7tide” (2 μM) as defined above, with 2 mM MgCl2 in the buffer composition listed above.
(§4) The incubation period at 27° C. for each CDK inhibition assay was chosen such that the fraction of phosphorylated peptide product produced in each assay, relative to the total peptide concentration, was approximately 20% (±5%) for the uninhibited kinase (35 min. for CDK7, 35 min. for CDK2, 3 hr. for CDK12, 15 min. for CDK9).

[6] = target: CDK7/Cyclin H/MAT1 complex (Homo sapiens, UniProt P50613); assay: CDK7 kinase inhibition assay (Caliper/LabChip EZ Reader)
Experimental: as §2, §3, §4

[7] = target: CDK9/Cyclin T1 complex (Homo sapiens, UniProt P50750); assay: CDK9 kinase inhibition assay (Caliper/LabChip EZ Reader)
[8] = target: CDK12 (aa686-1082)/Cyclin K complex (Homo sapiens, UniProt Q9NYV4); assay: CDK12 kinase inhibition assay (Caliper/LabChip EZ Reader)
CDK12 (aa686-1082)/Cyclin K complex, sequence (Q9NYV4 686-1082): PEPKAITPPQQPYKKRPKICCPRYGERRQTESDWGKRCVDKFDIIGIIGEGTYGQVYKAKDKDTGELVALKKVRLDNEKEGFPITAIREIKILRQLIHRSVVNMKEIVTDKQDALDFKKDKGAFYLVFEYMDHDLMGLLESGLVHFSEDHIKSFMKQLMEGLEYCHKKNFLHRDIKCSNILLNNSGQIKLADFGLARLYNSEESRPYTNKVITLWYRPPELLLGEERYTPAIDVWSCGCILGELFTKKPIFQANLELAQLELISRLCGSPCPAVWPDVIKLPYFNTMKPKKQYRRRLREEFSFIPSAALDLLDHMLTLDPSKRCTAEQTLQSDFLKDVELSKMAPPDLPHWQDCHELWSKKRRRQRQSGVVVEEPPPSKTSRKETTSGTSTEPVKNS
CDK12 (aa686-1082)/Cyclin K complex, sequence (O75909 whole entry partner, the tested form may be a part): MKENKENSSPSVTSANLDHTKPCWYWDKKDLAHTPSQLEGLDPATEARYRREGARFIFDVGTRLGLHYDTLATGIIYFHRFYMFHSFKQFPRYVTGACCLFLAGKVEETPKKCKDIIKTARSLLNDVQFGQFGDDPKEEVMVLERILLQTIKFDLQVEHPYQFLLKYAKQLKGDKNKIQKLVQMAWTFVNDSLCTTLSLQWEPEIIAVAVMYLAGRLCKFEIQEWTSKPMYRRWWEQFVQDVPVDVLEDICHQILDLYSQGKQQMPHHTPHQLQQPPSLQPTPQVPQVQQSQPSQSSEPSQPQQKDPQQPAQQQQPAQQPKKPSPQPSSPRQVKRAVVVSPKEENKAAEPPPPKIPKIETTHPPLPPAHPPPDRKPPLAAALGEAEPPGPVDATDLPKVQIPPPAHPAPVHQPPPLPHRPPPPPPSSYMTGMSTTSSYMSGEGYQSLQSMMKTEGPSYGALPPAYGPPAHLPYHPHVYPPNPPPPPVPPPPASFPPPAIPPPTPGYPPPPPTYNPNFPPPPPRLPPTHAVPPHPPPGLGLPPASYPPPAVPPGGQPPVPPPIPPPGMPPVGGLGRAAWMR
Experimental: as §2, §3, §4

CDK9/Cyclin T1 complex, sequence (P50750 whole entry, the tested form may be a part): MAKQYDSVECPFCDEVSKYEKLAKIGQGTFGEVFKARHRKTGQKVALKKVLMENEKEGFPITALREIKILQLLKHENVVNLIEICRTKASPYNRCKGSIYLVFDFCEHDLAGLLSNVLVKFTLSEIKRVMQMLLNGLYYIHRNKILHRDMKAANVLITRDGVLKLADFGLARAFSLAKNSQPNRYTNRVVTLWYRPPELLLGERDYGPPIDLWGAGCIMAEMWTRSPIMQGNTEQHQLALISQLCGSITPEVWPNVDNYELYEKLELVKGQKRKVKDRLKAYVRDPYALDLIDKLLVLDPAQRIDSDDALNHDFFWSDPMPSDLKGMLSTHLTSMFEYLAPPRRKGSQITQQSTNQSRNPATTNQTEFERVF
CDK9/Cyclin T1 complex, sequence (O60563 whole entry partner, the tested form may be a part): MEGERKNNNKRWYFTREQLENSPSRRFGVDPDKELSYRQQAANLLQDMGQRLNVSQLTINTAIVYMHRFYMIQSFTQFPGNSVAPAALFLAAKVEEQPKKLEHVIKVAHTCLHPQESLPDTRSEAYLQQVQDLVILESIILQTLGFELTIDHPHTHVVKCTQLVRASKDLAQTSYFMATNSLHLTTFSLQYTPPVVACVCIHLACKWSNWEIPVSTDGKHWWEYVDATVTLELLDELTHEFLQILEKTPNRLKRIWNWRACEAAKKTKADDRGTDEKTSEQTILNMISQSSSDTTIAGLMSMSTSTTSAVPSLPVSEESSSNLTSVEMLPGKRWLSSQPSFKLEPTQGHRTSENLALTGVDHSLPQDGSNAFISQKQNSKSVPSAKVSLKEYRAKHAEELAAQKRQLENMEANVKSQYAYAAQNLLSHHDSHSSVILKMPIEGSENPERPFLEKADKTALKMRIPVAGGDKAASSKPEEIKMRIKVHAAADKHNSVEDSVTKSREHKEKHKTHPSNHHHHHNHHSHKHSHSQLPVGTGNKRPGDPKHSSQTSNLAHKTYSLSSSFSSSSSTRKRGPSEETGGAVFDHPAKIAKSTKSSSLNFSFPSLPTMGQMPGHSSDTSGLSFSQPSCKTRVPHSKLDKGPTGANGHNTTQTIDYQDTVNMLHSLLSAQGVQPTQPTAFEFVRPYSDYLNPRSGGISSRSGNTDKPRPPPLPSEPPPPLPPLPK
CDK7/Cyclin H/MAT1 complex, sequence (P50613 whole entry): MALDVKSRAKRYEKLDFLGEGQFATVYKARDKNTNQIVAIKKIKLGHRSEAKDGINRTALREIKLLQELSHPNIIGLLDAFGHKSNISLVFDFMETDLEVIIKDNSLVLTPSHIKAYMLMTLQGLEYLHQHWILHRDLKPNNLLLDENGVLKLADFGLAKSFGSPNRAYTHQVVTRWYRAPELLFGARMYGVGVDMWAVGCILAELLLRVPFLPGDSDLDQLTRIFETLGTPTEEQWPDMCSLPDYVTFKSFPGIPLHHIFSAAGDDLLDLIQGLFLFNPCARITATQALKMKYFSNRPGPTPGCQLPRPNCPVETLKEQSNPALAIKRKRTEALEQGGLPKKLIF
CDK7/Cyclin H/MAT1 complex, sequence (P51946 whole entry partner): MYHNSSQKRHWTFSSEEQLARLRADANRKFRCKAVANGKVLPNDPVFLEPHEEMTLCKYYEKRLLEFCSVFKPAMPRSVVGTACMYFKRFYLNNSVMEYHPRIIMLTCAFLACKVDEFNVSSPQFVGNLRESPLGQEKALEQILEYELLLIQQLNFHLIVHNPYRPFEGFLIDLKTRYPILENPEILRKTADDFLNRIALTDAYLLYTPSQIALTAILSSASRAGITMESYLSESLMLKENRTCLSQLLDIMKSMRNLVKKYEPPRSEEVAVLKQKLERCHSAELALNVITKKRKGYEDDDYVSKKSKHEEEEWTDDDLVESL
CDK7/Cyclin H/MAT1 complex, sequence (P51948 whole entry partner): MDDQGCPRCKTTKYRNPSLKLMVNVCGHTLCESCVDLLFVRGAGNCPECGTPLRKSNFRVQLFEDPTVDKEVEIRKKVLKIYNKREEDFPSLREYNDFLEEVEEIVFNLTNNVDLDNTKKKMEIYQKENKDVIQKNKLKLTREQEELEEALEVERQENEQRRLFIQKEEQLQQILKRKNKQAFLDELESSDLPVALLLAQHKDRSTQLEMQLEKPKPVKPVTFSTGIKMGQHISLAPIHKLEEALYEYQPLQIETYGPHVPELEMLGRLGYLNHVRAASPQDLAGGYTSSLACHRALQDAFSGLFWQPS

Cc1noc(C)c1-c1ccc2c(-c3nc(N[C@H]4CCC[C@@H]4NCCO)ncc3C(F)(F)F)c[nH]c2n1 [Compound 154, 2-[[(1S,2S)-2-[[4-[6-(3,5-dimethylisoxazol-4-yl)-1H-pyrrolo [2,3-b]pyridin-3-yl]-5-(trifluoromethyl)pyrimidin-2-yl]amino]cyclopentyl]amino]ethanol]
pIC50 [1]: > 7.00 | pIC50 [2]: 6.30 to 7.00 | pIC50 [3]: > 7.00 | pIC50 [4]: > 7.00 | pIC50 [5]: < 6.30 | pIC50 [6]: > 7.52 | pIC50 [7]: < 6.30 | pIC50 [8]: < 6.30

Cc1noc(C)c1-c1ccc2c(-c3nc(N[C@H]4CCC[C@H]4N4CC(F)(F)C4)ncc3C(F)(F)F)c[nH]c2n1 [Compound 167, N-[(1S,2R)-2-(3,3-difluoroazetidin-1-yl)cyclopentyl]-4-[6-(3,5-dimethylisoxazol-4-yl)-1H-pyrrolo[2,3-b]pyridin-3-yl]-5-(trifluoromethyl)pyrimidin-2-amine]
pIC50 [1]: < 5.70 | pIC50 [2]: < 5.70 | pIC50 [3]: < 5.70 | pIC50 [4]: < 5.70 | pIC50 [5]: < 6.30 | pIC50 [6]: < 6.30 | pIC50 [7]: < 6.30 | pIC50 [8]: < 6.30

Cc1noc(C)c1-c1ccc2c(-c3nc(N[C@@H]4C[C@@H]5CC[C@H]4N5)ncc3C(F)(F)F)c[nH]c2n1 [Compound 140]
pIC50 [1]: > 7.00 | pIC50 [2]: > 7.00 | pIC50 [3]: > 7.00 | pIC50 [4]: > 7.00 | pIC50 [5]: < 6.30 | pIC50 [6]: > 7.52 | pIC50 [7]: < 6.30 | pIC50 [8]: < 6.30

CN(C)[C@H]1CC[C@@H]1Nc1ncc(C(F)(F)F)c(-c2c[nH]c3cc(C#N)ccc23)n1 [Compound 126, 3-[2-[[(1S,2S)-2-(dimethylamino)cyclobutyl]-amino]-5-(trifluoromethyl)pyrimidin-4-yl]-1H-indole-6-carbonitrile]
pIC50 [1]: < 5.70 | pIC50 [2]: < 5.70 | pIC50 [3]: 6.30 to 7.00 | pIC50 [4]: 6.30 to 7.00 | pIC50 [5]: < 6.30 | pIC50 [6]: 7.00 to 7.52 | pIC50 [7]: < 6.30 | pIC50 [8]: < 6.30

N#Cc1ccc2c(-c3nc(N[C@H]4CNC[C@@H]4c4ccc(Cl)cc4)ncc3C(F)(F)F)c[nH]c2c1 (relative stereo) [Compound 113]
pIC50 [1]: < 5.70 | pIC50 [2]: < 5.70 | pIC50 [3]: 5.70 to 6.30 | pIC50 [4]: < 5.70 | pIC50 [5]: < 6.30 | pIC50 [6]: < 6.30 | pIC50 [7]: < 6.30 | pIC50 [8]: < 6.30

COCCN[C@H]1CCC[C@@H]1Nc1ncc(C(F)(F)F)c(-c2c[nH]c3cc(C#N)ccc23)n1 [Compound 123, 3-[2-[[(1S,2S)-2-(2-methoxyethylamino)cyclopentyl]-amino]-5-(trifluoromethyl)pyrimidin-4-yl]-1H-indole-6-carbonitrile]
pIC50 [1]: 6.30 to 7.00 | pIC50 [2]: 6.30 to 7.00 | pIC50 [3]: 6.30 to 7.00 | pIC50 [4]: 6.30 to 7.00 | pIC50 [5]: < 6.30 | pIC50 [6]: > 7.52 | pIC50 [7]: < 6.30 | pIC50 [8]: < 6.30

C[C@H]1C[C@H](Nc2ncc(C(F)(F)F)c(-c3c[nH]c4cc(C#N)ccc34)n2)CN1 [Compound 104]
pIC50 [1]: 5.70 to 6.30 | pIC50 [2]: < 5.70 | pIC50 [3]: 6.30 to 7.00 | pIC50 [4]: 6.30 to 7.00 | pIC50 [5]: < 6.30 | pIC50 [6]: 7.00 to 7.52 | pIC50 [7]: < 6.30 | pIC50 [8]: < 6.30

N#Cc1ccc2c(-c3nc(N[C@@H]4CNC[C@H]4F)ncc3C(F)(F)F)c[nH]c2c1 (relative stereo) [Compound 110]
pIC50 [1]: 5.70 to 6.30 | pIC50 [2]: < 5.70 | pIC50 [3]: 5.70 to 6.30 | pIC50 [4]: < 5.70 | pIC50 [5]: < 6.30 | pIC50 [6]: 6.30 to 7.00 | pIC50 [7]: < 6.30 | pIC50 [8]: < 6.30

Cc1nsc(-c2ccc3c(-c4nc(N[C@H]5CCC[C@@H]5N)ncc4C(F)(F)F)c[nH]c3n2)n1 [Compound 158, (1S,2S)—N1-[4-[6-(3-methyl-1,2,4-thiadiazol-5-yl)-1H-pyrrolo [2,3-b]pyridin-3-yl]-5-(trifluoromethyl)pyrimidin-2-yl]cyclopentane-1,2-diamine]
pIC50 [1]: 5.70 to 6.30 | pIC50 [2]: < 5.70 | pIC50 [3]: < 5.70 | pIC50 [4]: 5.70 to 6.30 | pIC50 [5]: < 6.30 | pIC50 [6]: > 7.52 | pIC50 [7]: < 6.30 | pIC50 [8]: < 6.30

Cc1noc(C)c1-c1ccc2c(-c3nc(N[C@H]4C[C@H]5CC[N@](CC5)C4)ncc3C(F)(F)F)c[nH]c2n1 [Compound 141, (3S)—N-[4-[6-(3,5-dimethylisoxazol-4-yl)-1H-pyrrolo[2,3-b]pyridin-3-yl]-5-(trifluoromethyl)pyrimidin-2-yl]-1-azabicyclo[3.2.2]nonan-3-amine]
pIC50 [1]: > 7.00 | pIC50 [2]: > 7.00 | pIC50 [3]: > 7.00 | pIC50 [4]: > 7.00 | pIC50 [5]: < 6.30 | pIC50 [6]: > 7.52 | pIC50 [7]: < 6.30 | pIC50 [8]: < 6.30

N#Cc1ccc2c(-c3nc(N[C@H]4CN[C@H](CO)C4)ncc3C(F)(F)F)c[nH]c2c1 [Compound 112]
pIC50 [1]: < 5.70 | pIC50 [2]: < 5.70 | pIC50 [3]: < 5.70 | pIC50 [4]: 5.70 to 6.30 | pIC50 [5]: < 6.30 | pIC50 [6]: 6.30 to 7.00 | pIC50 [7]: < 6.30 | pIC50 [8]: < 6.30

N#Cc1ccc2c(-c3nc(N[C@H]4CCC[C@@H]4N4CCCC4)ncc3C(F)(F)F)c[nH]c2c1 [Compound 122]
pIC50 [1]: 6.30 to 7.00 | pIC50 [2]: 6.30 to 7.00 | pIC50 [3]: 6.30 to 7.00 | pIC50 [4]: 6.30 to 7.00 | pIC50 [5]: < 6.30 | pIC50 [6]: 7.00 to 7.52 | pIC50 [7]: < 6.30 | pIC50 [8]: < 6.30

COC1CN([C@@H]2CCC[C@@H]2Nc2ncc(C(F)(F)F)c(-c3c[nH]c4nc(-c5c(C)noc5C)ccc34)n2)C1 [Compound 165, 4-[6-(3,5-dimethylisoxazol-4-yl)-1H-pyrrolo[2,3-b]pyridin-3-yl]-N-[(1S,2R)-2-(3-methoxyazetidin-1-yl)cyclopentyl]-5-(trifluoromethyl)pyrimidin-2-amine]
pIC50 [1]: < 5.70 | pIC50 [2]: < 5.70 | pIC50 [3]: < 5.70 | pIC50 [4]: 5.70 to 6.30 | pIC50 [5]: < 6.30 | pIC50 [6]: 7.00 to 7.52 | pIC50 [7]: < 6.30 | pIC50 [8]: < 6.30

N[C@H]1CCC[C@@H]1Nc1ncc(C(F)(F)F)c(-c2c[nH]c3c(Cl)c(O)ccc23)n1 [Compound 168, 3-[2-[[(1S,2S)-2-aminocyclopentyl]amino]-5-(trifluoromethyl)pyrimidin-4-yl]-7-chloro-1H-indol-6-ol]
pIC50 [1]: 6.30 to 7.00 | pIC50 [2]: 6.30 to 7.00 | pIC50 [3]: > 7.00 | pIC50 [4]: > 7.00 | pIC50 [5]: < 6.30 | pIC50 [6]: > 7.52 | pIC50 [7]: < 6.30 | pIC50 [8]: < 6.30

CCN[C@H]1CC[C@@H]1Nc1ncc(C(F)(F)F)c(-c2c[nH]c3nc(-c4c(C)noc4C)ccc23)n1 [Compound 160, (1S,2S)—N2-[4-[6-(3,5-dimethylisoxazol-4-yl)-1H-pyrrolo[2,3-b]pyridin-3-yl]-5-(trifluoromethyl)pyrimidin-2-yl]-N1-ethyl-cyclobutane-1,2-diamine]
pIC50 [1]: > 7.00 | pIC50 [2]: > 7.00 | pIC50 [3]: > 7.00 | pIC50 [4]: > 7.00 | pIC50 [5]: < 6.30 | pIC50 [6]: > 7.52 | pIC50 [7]: < 6.30 | pIC50 [8]: < 6.30

Cc1noc(C)c1-c1ccc2c(-c3nc(N[C@H]4CCC[C@@H]4NCCF)ncc3C(F)(F)F)c[nH]c2n1 [Compound 151, (1S,2S)—N1-[4-[6-(3,5-dimethylisoxazol-4-yl)-1H-pyrrolo[2,3-b]pyridin-3-yl]-5-(trifluoromethyl)pyrimidin-2-yl]-N2-(2-fluoroethyl)cyclopentane-1,2-diamine]
pIC50 [1]: > 7.00 | pIC50 [2]: < 5.70 | pIC50 [3]: > 7.00 | pIC50 [4]: 6.30 to 7.00 | pIC50 [5]: < 6.30 | pIC50 [6]: > 7.52 | pIC50 [7]: < 6.30 | pIC50 [8]: < 6.30

Cc1noc(C)c1-c1ccc2c(-c3nc(N[C@@H]4C[C@H]5CC[N@](CC5)C4)ncc3C(F)(F)F)cn(S(=O)(=O)c3ccccc3)c2n1 [Compound 142, (3R)—N-[4-[1-(benzenesulfonyl)-6-(3,5-dimethylisoxazol-4-yl)pyrrolo[2,3-b]pyridin-3-yl]-5-(trifluoromethyl)pyrimidin-2-yl]-1-azabicyclo[3.2.2]nonan-3-amine]
pIC50 [1]: 6.30 to 7.00 | pIC50 [2]: 6.30 to 7.00 | pIC50 [3]: 6.30 to 7.00 | pIC50 [4]: 6.30 to 7.00 | pIC50 [5]: < 6.30 | pIC50 [6]: > 7.52 | pIC50 [7]: < 6.30 | pIC50 [8]: < 6.30

Cc1noc(C)c1-c1ccc2c(-c3nc(NC4CC[C@@H]4N4CCCC4)ncc3C(F)(F)F)c[nH]c2n1 (stereo in doubt) [Compound 149, 4-[6-(3,5-dimethylisoxazol-4-yl)-1H-pyrrolo[2,3-b]pyridin-3-yl]-N-(2-pyrrolidin-1-ylcyclobutyl)-5-(trifluoromethyl) pyrimidin-2-amine]
pIC50 [1]: > 7.00 | pIC50 [2]: < 5.70 | pIC50 [3]: > 7.00 | pIC50 [4]: > 7.00 | pIC50 [5]: < 6.30 | pIC50 [6]: > 7.52 | pIC50 [7]: < 6.30 | pIC50 [8]: < 6.30
